Test results taken from BindingDB's records for doi:10.1124/jpet.102.040162 (Sanofi-SynthÉLabo Recherche, 2002).
pKi: −log10 of the molar value. Where “and” joins values, the source holds several entries; their conditions need not be identical. Equal entries are not always repeated. Square brackets hold non-standard residues; d marks the D form. Peptide text beside a SMILES is read from it. NMeF = CN[C@@H](Cc1ccccc1)C(=O)O

Experiments:
[1] = target: T1, Neuromedin-K receptor (Homo sapiens, UniProt P29371)
T1 sequence (P29371 whole entry): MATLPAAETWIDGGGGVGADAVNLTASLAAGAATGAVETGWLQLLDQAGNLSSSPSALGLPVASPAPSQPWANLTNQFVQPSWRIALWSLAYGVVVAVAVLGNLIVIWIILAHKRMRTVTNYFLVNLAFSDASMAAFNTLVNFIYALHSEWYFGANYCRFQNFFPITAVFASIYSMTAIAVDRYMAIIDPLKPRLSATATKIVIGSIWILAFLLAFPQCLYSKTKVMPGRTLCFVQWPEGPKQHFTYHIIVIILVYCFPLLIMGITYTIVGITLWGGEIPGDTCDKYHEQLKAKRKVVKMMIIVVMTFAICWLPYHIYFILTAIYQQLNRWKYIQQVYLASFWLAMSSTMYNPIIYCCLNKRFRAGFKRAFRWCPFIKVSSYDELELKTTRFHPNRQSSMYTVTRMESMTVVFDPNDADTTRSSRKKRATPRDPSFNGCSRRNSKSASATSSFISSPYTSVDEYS

[2] = target: T2, Neuromedin-K receptor (Meriones unguiculatus, UniProt Q2YHR0)
T2 sequence (Q2YHR0 whole entry): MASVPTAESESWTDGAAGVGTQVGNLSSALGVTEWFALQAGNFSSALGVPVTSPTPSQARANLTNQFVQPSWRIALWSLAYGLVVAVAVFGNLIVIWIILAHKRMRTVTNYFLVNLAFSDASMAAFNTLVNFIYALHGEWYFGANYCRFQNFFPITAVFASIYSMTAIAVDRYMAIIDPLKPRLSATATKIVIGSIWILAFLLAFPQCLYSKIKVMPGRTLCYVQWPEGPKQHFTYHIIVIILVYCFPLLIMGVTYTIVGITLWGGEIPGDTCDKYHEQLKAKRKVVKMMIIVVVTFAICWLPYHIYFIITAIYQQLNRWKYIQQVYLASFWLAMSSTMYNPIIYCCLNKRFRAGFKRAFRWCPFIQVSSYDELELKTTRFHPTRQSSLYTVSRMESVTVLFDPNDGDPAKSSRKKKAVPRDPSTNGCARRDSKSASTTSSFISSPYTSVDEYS

[3] = target: T3, Neuromedin-K receptor (Cavia porcellus, UniProt P30098)
T3 sequence (P30098 whole entry): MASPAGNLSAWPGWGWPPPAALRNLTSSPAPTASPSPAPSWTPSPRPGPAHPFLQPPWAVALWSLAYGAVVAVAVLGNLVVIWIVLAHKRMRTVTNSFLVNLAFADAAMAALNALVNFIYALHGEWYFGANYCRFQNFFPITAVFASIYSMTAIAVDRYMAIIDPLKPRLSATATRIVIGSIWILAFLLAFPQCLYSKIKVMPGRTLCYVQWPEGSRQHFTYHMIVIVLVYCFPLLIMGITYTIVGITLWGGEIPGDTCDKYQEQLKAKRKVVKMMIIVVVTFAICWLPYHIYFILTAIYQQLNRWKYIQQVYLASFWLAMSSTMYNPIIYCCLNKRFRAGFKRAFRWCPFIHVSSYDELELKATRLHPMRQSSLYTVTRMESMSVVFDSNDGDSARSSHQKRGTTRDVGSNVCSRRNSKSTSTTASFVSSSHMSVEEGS

[4] = target: T4, Neuromedin-K receptor (Mus musculus, UniProt P47937)
T4 sequence (P47937 whole entry): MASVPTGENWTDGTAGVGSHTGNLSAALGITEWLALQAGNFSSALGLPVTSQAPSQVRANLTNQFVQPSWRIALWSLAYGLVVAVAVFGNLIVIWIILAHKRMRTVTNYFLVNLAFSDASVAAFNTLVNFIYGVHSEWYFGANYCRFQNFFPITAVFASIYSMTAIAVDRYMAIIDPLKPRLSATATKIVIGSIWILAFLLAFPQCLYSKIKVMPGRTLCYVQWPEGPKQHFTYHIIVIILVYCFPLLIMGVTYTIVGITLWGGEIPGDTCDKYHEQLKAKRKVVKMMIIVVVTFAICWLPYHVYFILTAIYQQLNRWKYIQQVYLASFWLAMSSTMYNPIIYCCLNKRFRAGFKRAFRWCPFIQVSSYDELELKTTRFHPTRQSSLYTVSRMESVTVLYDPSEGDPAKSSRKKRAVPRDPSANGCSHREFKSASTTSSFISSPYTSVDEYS

[5] = target: T5, Substance-K receptor (Cavia porcellus, UniProt Q64077)
T5 sequence (Q64077 whole entry): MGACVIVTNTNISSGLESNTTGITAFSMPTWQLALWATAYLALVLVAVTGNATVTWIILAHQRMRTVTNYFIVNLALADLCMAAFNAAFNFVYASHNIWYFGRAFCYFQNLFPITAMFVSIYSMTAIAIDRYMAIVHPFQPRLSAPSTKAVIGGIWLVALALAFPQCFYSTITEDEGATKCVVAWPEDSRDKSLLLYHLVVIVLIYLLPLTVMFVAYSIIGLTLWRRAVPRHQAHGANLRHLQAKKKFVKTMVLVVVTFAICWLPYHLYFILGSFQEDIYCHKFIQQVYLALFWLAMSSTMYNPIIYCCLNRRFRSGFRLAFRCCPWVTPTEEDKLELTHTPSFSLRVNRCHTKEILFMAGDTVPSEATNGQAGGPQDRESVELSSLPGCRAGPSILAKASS

[6] = target: Substance-P receptor (Rattus norvegicus, UniProt P14600)
Chain of Substance-P receptor (Rattus norvegicus, UniProt P14600) (P14600 whole entry): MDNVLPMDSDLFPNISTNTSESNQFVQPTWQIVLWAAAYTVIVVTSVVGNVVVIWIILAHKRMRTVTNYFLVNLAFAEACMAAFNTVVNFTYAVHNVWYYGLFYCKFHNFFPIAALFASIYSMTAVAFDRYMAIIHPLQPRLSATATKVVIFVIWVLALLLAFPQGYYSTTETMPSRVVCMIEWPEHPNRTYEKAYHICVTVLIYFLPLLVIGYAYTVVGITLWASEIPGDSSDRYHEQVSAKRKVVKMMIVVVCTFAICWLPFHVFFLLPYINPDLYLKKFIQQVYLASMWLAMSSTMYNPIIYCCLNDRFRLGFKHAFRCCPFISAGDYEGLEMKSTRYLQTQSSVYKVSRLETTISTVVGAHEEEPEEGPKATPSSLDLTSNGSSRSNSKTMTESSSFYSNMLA

[7] = target: T6, Substance-K receptor (Homo sapiens, UniProt P21452)
T6 sequence (P21452 whole entry): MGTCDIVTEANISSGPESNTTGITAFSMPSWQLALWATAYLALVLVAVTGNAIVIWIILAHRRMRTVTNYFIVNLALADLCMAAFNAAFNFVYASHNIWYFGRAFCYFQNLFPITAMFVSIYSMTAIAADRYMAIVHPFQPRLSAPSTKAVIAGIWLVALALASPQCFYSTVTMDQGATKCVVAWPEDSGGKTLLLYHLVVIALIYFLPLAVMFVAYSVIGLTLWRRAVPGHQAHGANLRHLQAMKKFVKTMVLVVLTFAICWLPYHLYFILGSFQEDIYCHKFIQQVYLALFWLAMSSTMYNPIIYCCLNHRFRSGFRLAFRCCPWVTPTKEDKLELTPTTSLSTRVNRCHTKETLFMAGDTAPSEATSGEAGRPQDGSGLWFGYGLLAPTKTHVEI

[8] = target: Substance-P receptor (Cavia porcellus, UniProt P30547)
Chain of Substance-P receptor (Cavia porcellus, UniProt P30547) (P30547 whole entry): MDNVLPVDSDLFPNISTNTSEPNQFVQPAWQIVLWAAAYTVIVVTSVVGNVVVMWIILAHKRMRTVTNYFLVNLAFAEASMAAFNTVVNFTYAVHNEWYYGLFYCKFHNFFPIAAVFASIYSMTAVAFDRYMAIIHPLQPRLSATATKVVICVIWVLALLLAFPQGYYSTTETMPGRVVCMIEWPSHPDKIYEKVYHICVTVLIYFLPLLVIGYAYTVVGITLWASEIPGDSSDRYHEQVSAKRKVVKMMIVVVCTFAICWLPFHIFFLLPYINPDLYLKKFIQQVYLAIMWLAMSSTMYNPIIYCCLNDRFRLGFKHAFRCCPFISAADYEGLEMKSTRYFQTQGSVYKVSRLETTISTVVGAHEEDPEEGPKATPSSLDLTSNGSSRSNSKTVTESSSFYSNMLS

[9] = target: T7, Substance-K receptor (Rattus norvegicus, UniProt P16610)
T7 sequence (P16610 whole entry): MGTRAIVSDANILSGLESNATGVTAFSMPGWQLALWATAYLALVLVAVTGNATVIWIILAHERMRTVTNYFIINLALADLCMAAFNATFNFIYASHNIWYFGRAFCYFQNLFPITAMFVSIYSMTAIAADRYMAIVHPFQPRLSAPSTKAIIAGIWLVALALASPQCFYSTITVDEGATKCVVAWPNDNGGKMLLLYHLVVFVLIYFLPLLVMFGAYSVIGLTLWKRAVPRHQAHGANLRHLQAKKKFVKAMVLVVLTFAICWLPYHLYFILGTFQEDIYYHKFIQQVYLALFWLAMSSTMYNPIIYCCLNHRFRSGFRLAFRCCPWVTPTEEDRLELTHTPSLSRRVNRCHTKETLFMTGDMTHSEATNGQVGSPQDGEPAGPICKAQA

| SMILES | pKi [1] | pKi [2] | pKi [3] | pKi [4] | pKi [5] | pKi [6] | pKi [7] | pKi [8] | pKi [9] |
| --- | --- | --- | --- | --- | --- | --- | --- | --- | --- |
| CSCC[C@H](NC(=O)[C@H](CC(C)C)NC(=O)CNC(=O)[C@H](Cc1ccccc1)N(C)C(=O)[C@H](Cc1ccccc1)NC(=O)[C@H](Cc1ccccc1)NC(=O)[C@H](CC(=O)O)NC(=O)[C@H](Cc1cnc[nH]1)NC(=O)[C@H](CCSC)NC(=O)[C@@H](N)CC(=O)O)C(N)=O [NKB [MePhe7]] (H-DMHDFF[NMeF]GLM-NH2) | 9.47 | 9.80 | 9.37 | 10.28 |  |  |  |  |  |
| CSCC[C@H](NC(=O)[C@H](CC(C)C)NC(=O)CNC(=O)[C@@H](NC(=O)[C@H](Cc1ccccc1)NC(=O)[C@H](CO)NC(=O)[C@H](CC(=O)O)NC(=O)[C@@H](NC(=O)[C@H](CCCCN)NC(=O)[C@@H](N)Cc1cnc[nH]1)[C@@H](C)O)C(C)C)C(N)=O [Neurokinin alpha] |  |  |  |  | 8.64 |  |  |  |  |
| CC(C)(C(N)=O)C1CCN(CCC2(c3ccc(Cl)c(Cl)c3)CN(C(=O)Cc3cc(C(F)(F)F)cc(C(F)(F)F)c3)CCO2)CC1 (centres undefined) [SSR240600] | 6.69 | 6.26 | 7.68 | < 5.00 | 7.15 | 8.97 and 8.94 | 7.62 | 9.64 | 7.47 |
